Data reported in the NIST ThermoML archive (doi:10.1016/j.jct.2007.01.009).

Test: xn = mol fraction of the nth substance listed
Details: 101 kPa, Liquid, Pycnometric method

CCCCC(O)CO (stereo unspecified) [1,2-hexanediol] + O
mass density [kg/m3]
Details	283.15 K	288.15 K	293.15 K	298.15 K	303.15 K	308.15 K
x1 = 0.0009	999.77	999.33	998.26	997.06	995.65	993.92
x1 = 0.0018	999.85	999.35	998.28	997.06	995.66	993.92
x1 = 0.0036	1000.05	999.43	998.39	997.13	995.76	993.98
x1 = 0.0055	1000.31	999.57	998.54	997.24	995.78	994.13
x1 = 0.0077	1000.69	999.81	998.75	997.43	995.64	994.227
x1 = 0.009	1000.93	999.97	998.86	997.49	995.53	994.278
x1 = 0.0106	1001.22	1000.16	998.97	997.52	995.37	994.276
x1 = 0.0124	1001.49	1000.33	999.03	997.47	995.17	994.141
x1 = 0.0143	1001.65	1000.41	999.01	997.32	994.93	993.817
x1 = 0.016	1001.69	1000.38	998.91	997.13	994.7	993.395
x1 = 0.0178	1001.64	1000.25	998.73	996.87	994.45	992.869
x1 = 0.0351	999.52	997.75	995.76	993.77	991.54	988.24
x1 = 0.0672	995.27	993.06	990.72	988.37	985.8	981.847
x1 = 0.0968	991.84	989.37	986.7	983.93	981.37	977.569
x1 = 0.1119	990.47	987.91	985.24	982.11	979.56	975.746

CC(O)CCCCO (stereo unspecified) [1,5-hexanediol] + O
mass density [kg/m3]
Details	283.15 K	288.15 K	293.15 K	298.15 K	303.15 K	308.15 K
x1 = 0.001	999.62	999.01	998.08	996.9	995.49	993.87
x1 = 0.0021	999.54	998.92	997.97	996.78	995.34	993.69
x1 = 0.0037	999.45	998.83	997.87	996.64	995.17	993.47
x1 = 0.0053	999.39	998.77	997.8	996.54	995.05	993.32
x1 = 0.0071	999.38	998.74	997.74	996.46	994.97	993.19
x1 = 0.0089	999.41	998.73	997.7	996.4	994.91	993.09
x1 = 0.0111	999.49	998.75	997.68	996.36	994.86	992.99
x1 = 0.0145	999.68	998.84	997.7	996.34	994.79	992.85
x1 = 0.0194	1000.04	999.07	997.8	996.37	994.7	992.68
x1 = 0.0324	1001.21	999.91	998.22	996.47	994.45	992.23
x1 = 0.0507	1002.48	1000.63	998.55	996.31	994.04	991.47
x1 = 0.0738	1002.95	1000.72	998.24	995.66	993.05	990.3

OCCCCCCO [1,6-hexanediol] + O
mass density [kg/m3]
Details	283.15 K	288.15 K	293.15 K	298.15 K	303.15 K	308.15 K
x1 = 0.0009	999.67	999.02	998.12	996.93	995.54	993.92
x1 = 0.0019	999.65	998.96	998.04	996.83	995.42	993.78
x1 = 0.0037	999.63	998.86	997.92	996.68	995.24	993.57
x1 = 0.0054	999.64	998.8	997.84	996.58	995.11	993.41
x1 = 0.0074	999.66	998.78	997.78	996.49	994.99	993.24
x1 = 0.009	999.68	998.78	997.76	996.43	994.89	993.11
x1 = 0.0107	999.71	998.8	997.72	996.38	994.79	992.99
x1 = 0.0125	999.76	998.83	997.7	996.32	994.69	992.87
x1 = 0.0145	999.83	998.88	997.68	996.26	994.59	992.74
x1 = 0.0159	999.88	998.92	997.67	996.23	994.52	992.65
x1 = 0.0177	999.96	998.98	997.66	996.18	994.43	992.54
x1 = 0.0349	1000.78	999.42	997.56	995.67	993.61	991.57
x1 = 0.0514	1001.11	999.3	997.34	995.07	992.8	990.58
x1 = 0.0694	1001.08	998.88	996.87	994.3	991.84	989.39
x1 = 0.0983	1000.63	997.95	995.62	992.81	990.14	987.3
x1 = 0.112	1000.09	997.54	994.84	992.04	989.26	986.33

CC(O)CCC(C)O (stereo unspecified) [2,5-hexanediol] + O
mass density [kg/m3]
Details	283.15 K	288.15 K	293.15 K	298.15 K	303.15 K	308.15 K
x1 = 0.0008	999.67	999.06	998.13	996.94	995.52	993.87
x1 = 0.002	999.6	998.98	998.04	996.84	995.4	993.73
x1 = 0.0037	999.53	998.88	997.94	996.73	995.27	993.58
x1 = 0.0073	999.48	998.82	997.86	996.6	995.14	993.42
x1 = 0.009	999.54	998.85	997.84	996.58	995.09	993.35
x1 = 0.0102	999.61	998.88	997.84	996.58	995.07	993.31
x1 = 0.0123	999.75	998.97	997.89	996.6	995.05	993.25
x1 = 0.0142	999.92	999.08	997.96	996.64	995.05	993.21
x1 = 0.0159	1000.08	999.2	998.04	996.68	995.06	993.19
x1 = 0.0177	1000.27	999.34	998.14	996.74	995.07	993.17
x1 = 0.0263	1001.32	1000.14	998.73	997.13	995.23	993.17
x1 = 0.0353	1002.49	1001.07	999.39	997.56	995.43	993.19
x1 = 0.0516	1004.41	1002.55	1000.35	998.09	995.59	993
x1 = 0.0672	1005.71	1003.37	1000.75	998.16	995.35	992.44
x1 = 0.0688	1005.83	1003.42	1000.76	998.14	995.31	992.36
x1 = 0.0821	1006.35	1003.53	1000.63	997.8	994.75	991.62
x1 = 0.098	1006.33	1003.14	1000.02	996.97	993.8	990.55
x1 = 0.112	1005.71	1002.53	999.19	996.16	992.78	989.51
